Measurements reported in US9714231B2, “Pyrrolidine GPR40 modulators” (BRISTOL-MYERS SQUIBB COMPANY, priority 2012, dated 2017).
Structures can show the parent of a compound that is named as a salt. Where two headings read alike, the source gives them in different places.

Assays:
human GPR40 [1] = target: T1, human GPR40 (Homo sapiens, UniProt O14842); assay: FDSS-based intracellular calcium assay (Human GRP40 in vitro assay); type: cell-based; set-up: 3xFLAG; expressed in transfected cells; settings: cells expressing GPR40, intracellular Ca2+ response, FDSS reader; read-out: hGPR40 EC50
T1 sequence (O14842 whole entry): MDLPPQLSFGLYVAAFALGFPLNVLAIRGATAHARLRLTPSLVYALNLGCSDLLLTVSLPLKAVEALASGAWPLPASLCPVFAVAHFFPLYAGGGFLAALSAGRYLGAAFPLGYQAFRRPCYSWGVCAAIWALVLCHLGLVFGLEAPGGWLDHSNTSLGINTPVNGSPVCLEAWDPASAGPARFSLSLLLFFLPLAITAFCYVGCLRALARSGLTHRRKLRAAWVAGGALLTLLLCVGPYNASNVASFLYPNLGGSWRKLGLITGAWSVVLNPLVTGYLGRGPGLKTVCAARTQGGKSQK
In short: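 GPR40-expressing cells, plated overnight in serum-free phenol red-free DMEM, loaded with Fluo-3 in HBSS with 1.7 mM probenecid for 30 min at 37° C. Compounds in DMSO, diluted in assay buffer, added as 3× solutions; intracellular Ca^2+ response read on FDSS.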

human GPR40 [2] = target: T1, human GPR40

| SMILES | EC50 (human GPR40 [1]) | EC50 (human GPR40 [2]) |
| --- | --- | --- |
| CCOc1ccc(F)c(N2CCC(Oc3ccc(N4C[C@H](Cc5cccc(OC)c5)C[C@@H]4CC(=O)O)cc3)CC2)c1 [Example 124, 2-((2R,4R)-1-(4-((1-(5-Ethoxy-2-fluorophenyl)piperidin-4-yl)oxy)phenyl)-4-(3-methoxybenzyl)pyrrolidin-2-yl)acetic acid, TFA] | 0.38 µM | 0.047 µM |
| COc1cc(N2CCC(Oc3ccc(N4C[C@H](OC)C[C@@H]4CC(=O)O)cn3)C(C)C2)c(Cl)cn1 (stereo partly drawn) [Example 132, 2-((2R,4R)-1-(6-(((3,4-trans)-1-(5-Chloro-2-methoxypyridin-4-yl)-3-methylpiperidin-4-yl)oxy)pyridin-3-yl)-4-methoxypyrrolidin-2-yl)acetic acid] | 0.25 µM | 0.055 µM |
| COc1cc(N2CCC(Oc3ccc(N4C[C@H](C(F)(F)F)C[C@@H]4CC(=O)O)cn3)C(C)C2)c(Cl)cn1 (stereo partly drawn) [Example 133, 2-((2R,4R)-1-(6-(((3,4-trans)-1-(5-Chloro-2-methoxypyridin-4-yl)-3-methylpiperidin-4-yl)oxy)pyridin-3-yl)-4-(trifluoromethyl)pyrrolidin-2-yl)acetic acid] | 0.38 µM | 0.049 µM |
| COc1cc(N2CCC(Oc3ccc(N4C[C@H](C(F)(F)F)C[C@@H]4CC(=O)O)c(F)c3)C(C)C2)c(Cl)cn1 (stereo partly shown) [Example 138] | 0.19 µM | 0.027 µM |
| COc1cc(N2CCC(Oc3ccc(N4C[C@H](OC)C[C@@H]4CC(=O)O)c(F)c3)C(C)C2)c(Cl)cn1 (stereo partly drawn) [Example 139, 2-((2R,4R)-1-(4-((3,4-trans)-1-(5-Chloro-2-methoxypyridin-4-yl)-3-methylpiperidin-4-yloxy)-2-fluorophenyl)-4-methoxypyrrolidin-2-yl)acetic acid] | 0.23 µM | 0.022 µM |
| COc1cc(N2CCC(Oc3ccc(N4C[C@H](C(F)(F)F)C[C@@H]4CC(=O)O)c(F)c3F)C(C)C2)c(Cl)cn1 (stereo partly drawn) [Example 140, 2-((2R,4R)-1-(4-((3,4-trans)-1-(5-Chloro-2-methoxypyridin-4-yl)-3-methylpiperidin-4-yloxy)-2,3-difluorophenyl)-4-(trifluoromethyl)pyrrolidin-2-yl)acetic acid] | 0.25 µM | 0.072 µM |
| COc1cc(N2CCC(Oc3ccc(N4C[C@H](OC)C[C@@H]4CC(=O)O)cc3F)C(C)C2)c(Cl)cn1 (stereo partly drawn) [Example 142, 2-((2R,4R)-1-(4-((3,4-trans)-1-(5-Chloro-2-methoxypyridin-4-yl)-3-methylpiperidin-4-yloxy)-3-fluorophenyl)-4-methoxypyrrolidin-2-yl)acetic acid, TFA] | 0.27 µM | 0.031 µM |
| COc1cc(N2CCC(Oc3cc(F)c(N4C[C@H](OC)C[C@@H]4CC(=O)O)c(F)c3)C(C)C2)c(Cl)cn1 (stereo partly drawn) [Example 144, 2-((2R,4R)-1-(4-((3,4-trans)-1-(5-Chloro-2-methoxypyridin-4-yl)-3-methylpiperidin-4-yloxy)-2,6-difluorophenyl)-4-methoxypyrrolidin-2-yl)acetic acid, TFA] | 3.4 µM | 2.5 µM |
